Results from US20240287054A1, “COMPOUNDS THAT BIND NON-CANONICAL G-QUADRUPLEX STRUCTURES AND METHODS OF MAKING AND USING THE SAME” (The U.S.A., as Represented by the Secretary, Department of …, priority 2021, published 2024).
Where two headings read alike, the source gives them in different places.

Key:
Assay type in all cases: binding, human
MYCN hairpin-G4 DNA = assay: FIA using compound fluorescence (Ex 340/Em 500 nm), titration with unlabeled MYCN G4 DNA; details: for Kd: 100 nM compound titrated with folded unlabeled MYCN G4
Method: In this study, FIA was used for validating the bindings between certain bivalent and MYCN G4 oligos. To measure the binding affinity, a solution of each compound was prepared in triplicate in a 96 well-plate (Costar, black side clear bottom), resulting in a final concentration of 100 nM (5% final DMSO in the working solution). Unlabeled MYCN G4 DNA was folded based on the above-mentioned annealing method, then added into the well plate resulting in different concentrations by a seral dilution. The plate was incubated at room temperature for 30 min, followed by centrifuging at 500 rpm for 2 minutes. The fluorescence intensity was then quantitatively recorded by a Synergy Mx microplate reader (BioTek) at Ex 340 nm/Em 500 nm. The fluorescence intensities were then normalized, and the binding affinity was calculated by fitting the curve using one-site total model in GraphPad Prism 8.3.1 software.

MYCN G4 DNA [1] = assay: Surface plasmon resonance (SPR) with immobilized biotinylated MYCN G4 DNA; details: for positive binding in SPR (SNR>3): single concentration 100 μM compound
Method: Surface plasmon resonance (SPR) analysis. The SPR binding assays were performed with a BIAcore 3000 (GE Healthcare) instrument. A CM5 SPR biochip was loaded into the system and primed with running buffer (10 mM Tris, pH7.0, 100 mM KCl, 0.005% Tween 20, 5% DMSO) with a flow rate of 5 μL/min. Then both Flow Cell (Fc) 1 and 2 were activated by EDC/NHS (0.4 M/0.1 M) aqueous solution for 15 min, followed with an injection of streptavidin (SA) solution (0.2 mg/mL in 10 mM sodium acetate buffer, pH4.5) for 30 minutes. After the immobilization amount of SA reached 8,000-10,000 RU, the surface was deactivated by flowing 1 M Ethanolamine aqueous solution (pH 8.5) for 10 min and regenerated with 10 mM NaOH for 2 min to remove the unbound SA. In the meantime, biotinylated MYCN G4 DNA was prepared at 5 μM in the annealing buffer and heated up to 95° C. for 5 min and slowly cooled down. After annealing, a total of 150 μL solution was injected in the Fc 2 of SPR system for 30 min to immobilize DNA onto the chip surface. The small molecule solutions were tested once the baseline was stable.
To detect the binding signal as well as the binding affinity, a higher flowing rate (25 μL/min) was used in both Fc 1 (reference) and Fc 2 (DNA). Each of the compound solution was prepared at 20× designed the concentrations in DMSO, and then diluted into non-DMSO running buffer, resulting in a final concentration of 5% DMSO. Then, a total of 50 μL compound solution was injected in Fc 1-2 flow path for 120 s for association, followed with 200 s running of buffer for dissociation. An injection of 50 μL regeneration buffer (1 M KCl) could be performed between two samples if necessary. The final binding curve was obtained by reference subtraction. To determine the binding affinity (KD), a series of diluted compound solutions were injected and KD was calculated by BIAevaluation 4.0 software (GE Healthcare) using Langmuir 1:1 binding model.
In this example, SPR binding assays were performed to analyze binding activity of representative bivalent compounds of the present disclosure. The compounds of this example included a non-canonical binder component and a G4 stacker component. A BIAcore 3000 (GE Healthcare) instrument was used. A CM5 SPR biochip was used and primed with running buffer (10 mM Tris, pH7.0, 100 mM KCl, 0.005% Tween 20, 5% DMSO). To immobilize the compounds onto the chip surface, the flow rate was set as 5 μL/min. Then the carboxylated dextran on the chip surface was activated by EDC/NHS (0.4 M/0.1 M) aqueous solution for 15 min, followed with an injection of streptavidin (SA) solution (0.2 mg/mL in 10 mM sodium acetate buffer, pH 4.5) for 30 minutes. After the immobilization amount of SA, the surface was quenched by injecting 1 M ethanolamine (EA) aqueous solution (pH 8.5) for 10 min and regenerated with 10 mM NaOH for 2 min to remove the physical adsorption. Furthermore, biotinylated MYCN G4 DNA was prepared at 5 μM in the annealing buffer and heated up to 95° C. for 5 min followed with slowly cooling down to room temperature within 1 h. After annealing, a total of 150 μL solution was injected in the Fc 2 of SPR system for 30 min to immobilize DNA onto the chip surface. The compound solutions were then tested once the baseline was stable.
To detect the binding signal as well as the binding affinity, a higher flowing rate (25 μL/min) was used in both Fc 1 (blank) and Fc 2 (target). Each of the compound solutions was prepared at 20× designed the concentrations in DMSO, and then diluted into non-DMSO running buffer, resulting in a final concentration of 5% DMSO. Then, a total of 50 μL compound solution was injected in Fc 1-2 flow path for 120 s for association, followed with 200 s running of buffer for dissociation. An injection of 50 μL regeneration buffer (1 M KCl) could be performed between two samples if necessary. The final binding curve was obtained by referencing the blank channel (Fc 1). […]

MYCN G4 DNA [2] = assay: Fluorescence intensity assay (FIA) with 5′Cy5-labeled MYCN G4 DNA; details: single concentration 100 μM compound, 5′Cy5-MYCN G4
Method: Fluorescence intensity assay. In this disclosure, fluorescence intensity assay (FIA) was used for both validation of hit binding at a single dose and binding affinity determination. For validating hit compounds from SMM screening, 100 μM solution of each compound was prepared in triplicate in a 96 well-plate (Costar, black side clear bottom), resulting in 5% DMSO concentration. 5′Cy5-labeled MYCN G4 DNA was annealed as described above, then added into the well plate resulting in a final concentration of 100 nM. The plate was incubated shaking for 30 min, followed by centrifuging at 500 rpm for 2 minutes. The fluorescence intensity was then measured on a Synergy Mx microplate reader (BioTek) at Ex 649 nm/Em 670 nm. TMPyP4/DMSO were used as positive and negative controls, respectively. In certain examples, compounds were considered binders when a change of >10% change in fluorescence intensity was observed compared to that of negative control (DMSO solution). For binding affinity measurement, small molecule solutions were prepared as serial dilutions in DMSO. Then a final test plate was prepared by adding 5 μL small molecule solutions and 10 μL annealed DNA samples into 85 μL buffer solutions, resulting in the final small molecule concentrations from 0 to 250 μM (5% final DMSO concentration). The fluorescence intensities were normalized, and the binding affinity was calculated by fitting the curve using one-site total model in GraphPad Prism 8.3.1 software. The fluorescence titration using 3′-labeled oligonucleotides was also performed the same way.

[3] = target: MYCN G4 DNA (2-AP at A11); assay: 2-Aminopurine (2-AP) fluorescence titration, A11-labeled MYCN G4; details: 2-AP at A11 of MYCN G4
Method: 2-Aminopurine (2-AP) fluorescence titration. Fluorescence titrations based on 2-aminopurine labeling were performed using the protocol reported previously. Briefly, MYCN G4 oligonucleotide with a 2-AP substitution at either A11 or A18 position was annealed by heating the sample to 95° C. for 5 min and cooling down to RT slowly. The oligonucleotide with folded structure was diluted to 10 μM in Tris buffer (10 mM Tris, pH7.0, 100 mM KCl, 0.005% Tween 20) and prepared in a black 96-well plate (Costar) in triplicate as designed. Small molecules were diluted in DMSO to obtain a series of solutions with concentrations ranging from 0.1 to 5 mM, and then diluted by 20 times added into the plate (5% DMSO final concentration). The final concentration of 2-AP DNA was 1 μM in the well plate. To obtain the background fluorescence, small molecule solutions without DNA were also prepared in the same plate. After incubation for 30 min at RT, the plate was briefly centrifuged and scanned in Synergy Mx microplate reader (BioTek) with Ex 310 nm/Em 365 nm. Fluorescence signals were calculated by averaging the intensities in triplicate wells after subtracting the references. Finally, the binding signals were normalized and the KD value was determined by fitting the curve using a nonlinear sigmoidal dose-response model with a variable slope in GraphPad Prism 8.3.1 software.

[4] = MYCN hairpin G4, SPR titration, read-out: KD by SPR
[5] = MYCN G4, Langmuir 1:1 model, read-out: SPR KD

COc1ccc(-c2noc(-c3ccc(NCCOCCNc4c5ccc(Cl)cc5nc5ccc(OC)cc45)nn3)n2)cc1 [B35, 6-chloro-2-methoxy-N-(2-(2-((6-(3-(4-methoxyphenyl)-1,2,4-oxadiazol-5-yl)pyridazin-3-yl)amino)ethoxy)ethyl)acridin-9-amine]
Kd (MYCN hairpin-G4 DNA): 38 ± 5 nM
fold improvement of KD compared to B32 (MYCN hairpin-G4 DNA; FIA and SPR, MYCN HP-G4): > 10 fold
Kd (MYCN G4 DNA [1]; [4]): 14 ± 6 nM

COc1ccc(-c2noc(-c3ccc(NCCOCCOCCNc4c5ccc(Cl)cc5nc5ccc(OC)cc45)nn3)n2)cc1 [B38, 6-chloro-2-methoxy-N-(2-(2-(2-((6-(3-(4-methoxyphenyl)-1,2,4-oxadiazol-5-yl)pyridazin-3-yl)amino)ethoxy)ethoxy)ethyl)acridin-9-amine]
Kd (MYCN hairpin-G4 DNA): 69 ± 21 nM
Kd (MYCN G4 DNA [1]; [4]): 87 ± 39 nM

c1cc(CNCCCN2CCCCCC2)n(-c2nnc(C3CCCCCC3)s2)c1 [Compound 2]
positive binding in FIA (>10% quenching) (MYCN G4 DNA [2]): hits
positive binding in SPR (SNR>3) (MYCN G4 DNA [1]): hits

O=C1C(=O)C(c2ccc3c(c2)CCCC3)C1NC1CCN(Cc2ccccc2)CC1 (centres unmarked) [Compound 3]
positive binding in SPR (SNR>3) (MYCN G4 DNA [1]): hits

COCC(=O)c1nc2ccccc2nc1NCc1cccnc1 [Compound 5]
positive binding in FIA (>10% quenching) (MYCN G4 DNA [2]): hits
positive binding in SPR (SNR>3) (MYCN G4 DNA [1]): hits

Cc1c(C(=O)O)sc2ncnc(NCCCN3CCN(c4ccccc4)CC3)c12 [Compound 9]
positive binding in SPR (SNR>3) (MYCN G4 DNA [1]): hits

Cc1ccc(Nc2cc(C)nc(N3CCN(C(=O)CCc4ccccc4)CC3)n2)cc1 [Compound 10]
positive binding in FIA (>10% quenching) (MYCN G4 DNA [2]): hits

COc1ccc2c(c1)sc1nc(-c3ccc(OC)c(OC)c3)c(NC(C)(C)C)n12 [Compound 11]
positive binding in FIA (>10% quenching) (MYCN G4 DNA [2]): hits

CCOc1ccc(CNC(=O)c2cnc(N3CCSCC3)nc2N)cc1 [Compound 12]
positive binding in FIA (>10% quenching) (MYCN G4 DNA [2]): hits

CCCNc1cc(N2CCCC(CCC(=O)N3CCN(c4ncccn4)CC3)C2)ncn1 (centres unmarked) [Compound 13]
positive binding in SPR (SNR>3) (MYCN G4 DNA [1]): hits

CC(C)COCC(O)CN1CCN(c2ccc(NC(=O)c3cccs3)cn2)CC1 (centres unmarked) [Compound 14]
positive binding in FIA (>10% quenching) (MYCN G4 DNA [2]): hits

COCCNc1ccc(-c2nc(-c3ccc(OC)cc3)no2)nn1 [MY-3]
Kd [3]: 1200 ± 600 nM
Kd (MYCN G4 DNA [1]; [5]): 5900 ± 2700 nM

COc1ccc(-c2noc(-c3ccc(NCCCN4CCN(C)CC4)nn3)n2)cc1 [MY-5, 6-(3-(4-methoxyphenyl)-1,2,4-oxadiazol-5-yl)-N-(3-(4-methylpiperazin-1-yl)propyl)pyridazin-3-amine]
Kd [3]: 1000 ± 100 nM
Kd (MYCN G4 DNA [1]; [5]): 1400 ± 200 nM

COc1ccc(-c2noc(-c3ccc(NCCN(C)C)nn3)n2)cc1 [MY-6]
Kd [3]: 1000 ± 200 nM
Kd (MYCN G4 DNA [1]; [5]): 4900 ± 2600 nM

COc1ccc(-c2noc(-c3ccc(NCCC(N)=O)nn3)n2)cc1 [MY-7]
Kd [3]: 13200 ± 4600 nM
Kd (MYCN G4 DNA [1]; [5]): 23500 ± 4700 nM

COc1ccc(-c2noc(-c3ccc(NCCCN4CCC(C)CC4)nn3)n2)cc1 [MY-10]
A11 2AP KD [3]: sub-micromolar binders
Kd [3]: 700 ± 200 nM
Kd (MYCN G4 DNA [1]; [5]): 2200 ± 600 nM

COc1ccc(-c2noc(-c3ccc(NCCCN(C)C)nn3)n2)cc1 [MY-11]
Kd [3]: 1200 ± 200 nM
Kd (MYCN G4 DNA [1]; [5]): 9200 ± 1900 nM

COc1ccc(-c2noc(-c3ccc(NCCN4CCCC4)nn3)n2)cc1 [MY-12]
Kd (MYCN G4 DNA [1]; [5]): > 100000 nM

COc1ccc(-c2noc(-c3ccc(NCCN4CCOCC4)nn3)n2)cc1 [MY-13, 6-(3-(4-methoxyphenyl)-1,2,4-oxadiazol-5-yl)-N-(2-morpholinoethyl)pyridazin-3-amine]
Kd [3]: 3200 ± 700 nM
Kd (MYCN G4 DNA [1]; [5]): 8200 ± 2400 nM

COc1ccc(-c2noc(-c3ccc(NCCN4CCN(C)CC4)nn3)n2)cc1 [MY-14]
A11 2AP KD [3]: sub-micromolar binders
Kd [3]: 900 ± 200 nM
Kd (MYCN G4 DNA [1]; [5]): 3600 ± 1000 nM
